Experimental data reported in patent US20120014950A1, “Antibodies That Specifically Bind to DR3” (Xencor, Inc., priority 2010, published 2012).

Columns and labels:
[1] = tested on: collagen induced arthritis (CIA) mice; assay: Murine collagen induced arthritis (CIA) model; type: in vivo, DBA/1JLacJ mice; conditions: i.p., 200 μg (dexamethasone 50 μg)
Procedure: In general CIA was induced using the following protocol. Male DBA/1JLacJ mice (8-10 weeks) were injected intradermally (i.d.) at the base of the tail with […] of type II bovine collagen (CII) and complete Freund's adjuvant (CFA) at a final concentration of 4 mg/ml on Day 1. Mice were given a second injection i.d. with CII and CFA on Day 21. On days 21, 28, 35, and 42, mice were treated prophylactically with 200 μg intraperitoneal (i.p.) of the therapeutic molecules, anti-TNF-α antibody (R&D systems, cat #AB-410-NA) or D06-Fab-MSA. In addition, a control group of mice was not treated with a therapeutic molecule (“No Treatment”) and a second control group was treated with 50 μg dexamethasone i.p. every other day (e.o.d.) (“Dexamethasone”). The animals were scored every other day until the experiment was terminated on Day 46.
In a separate experiment, on days 21, 28, 35, and 42, CIA-mice were treated prophylactically with 200 μg intraperitoneal (i.p.) of either 2D9-Fab-MSA, or 5D10-Fab-MSA. In addition, a control group of mice was treated with an isotype control antibody (IgG1). The animals were scored every other day until the experiment was terminated on Day 46. Clinical scores were determined as above.
Histology was preformed to further determine the degree of inflammation as well as potential bone erosion in these animals. […]

[2] = target: T1, DR3 receptor (Homo sapiens, UniProt Q93038); assay: TF-1 assay (cell viability, cycloheximide, Cell Titer Glo); type: cell-based; conditions: TF-1 cells with cycloheximide; luminescence
T1 construct: endogenous in cells; host or cells: TF-1 (premyeloid)
T1 sequence (Q93038 25-417): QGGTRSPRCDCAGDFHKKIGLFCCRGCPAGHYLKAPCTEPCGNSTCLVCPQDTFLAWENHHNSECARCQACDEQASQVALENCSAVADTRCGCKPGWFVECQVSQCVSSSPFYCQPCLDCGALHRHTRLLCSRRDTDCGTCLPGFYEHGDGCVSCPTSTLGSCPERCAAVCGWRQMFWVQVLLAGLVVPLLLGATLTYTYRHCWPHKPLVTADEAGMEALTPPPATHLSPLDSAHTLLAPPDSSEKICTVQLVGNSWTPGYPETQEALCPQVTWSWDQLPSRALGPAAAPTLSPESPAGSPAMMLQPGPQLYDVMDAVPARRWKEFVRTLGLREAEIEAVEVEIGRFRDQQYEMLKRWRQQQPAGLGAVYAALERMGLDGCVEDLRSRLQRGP

## C[C@@H]1C[C@H]2[C@@H]3CCC4=CC(=O)C=C[C@]4(C)[C@@]3(F)[C@@H](O)C[C@]2(C)[C@@]1(O)C(=O)CO [Dexamethasone]
[1]
  % Arthritis Incidence at Day 42: 0%

## TL1A: human TL1A (TNFSF15), the natural ligand for DR3; positive control [reference compound]
[2]
  TF-1 cell viability / apoptosis induction (agonist, TL1A-like activity): induce apoptosis
